{"source": "PubChem BioAssay AID1996"}
{"conditions": "buffer; pH 7.4; 200.0 µM", "units": {"solubility kinetic": "µg/mL"}}
{"smiles": "Cc1ccc(Oc2ncccc2C(=O)NCC(=O)O)cc1", "solubility kinetic": 42.7}
{"smiles": "COC(=O)c1ccc(Nc2c([N+](=O)[O-])c(=O)oc3ccccc23)cc1", "solubility kinetic": 4.1}
{"smiles": "O=[N+]([O-])c1ccc(Cl)c(S(=O)(=O)NCCc2ccccn2)c1", "solubility kinetic": "> 51.3"}
{"smiles": "CCOc1ccccc1NC(=O)c1cc(=O)[nH]c2ccc(S(=O)(=O)N3CCOCC3)cc12", "solubility kinetic": 21.4}
{"smiles": "Cc1cccc(C(=O)NCC(=O)OCC(=O)c2ccc(Cl)s2)c1", "solubility kinetic": "> 52.8"}
{"smiles": "COc1ccc(NC(=O)CN2CCc3ccccc3C2)c(OC)c1", "solubility kinetic": 34.1}
{"smiles": "COc1ccc(OC)c(NC(=O)CCN2CCN(CCO)CC2)c1", "solubility kinetic": 45.7}
{"smiles": "O=C(NC(=S)Nc1cc([N+](=O)[O-])ccc1O)C1CC1", "solubility kinetic": "> 42.2"}
{"smiles": "Nc1nc(N)n(-c2ccccc2)c(=Nc2ccccc2)n1", "solubility kinetic": "> 41.7"}
{"smiles": "O=C(NC(=S)NCCCN1CCOCC1)c1ccco1", "solubility kinetic": "> 44.6"}
{"smiles": "CC(C)CNC(=O)C1CCCN(C(=O)NCc2ccccc2)C1", "note": "(centres undefined)", "solubility kinetic": "> 47.6"}
{"smiles": "Cc1c(N)cc[n+](CC(=O)c2ccccc2)c1C.[Br-]", "solubility kinetic": "> 48.2"}
{"smiles": "O=C(NCc1ccccn1)Nc1ccc(Cl)cc1Cl", "solubility kinetic": 9.2}
{"smiles": "O=C(Cc1ccc(Cl)cc1)NC1CCS(=O)(=O)C1", "note": "(centres undefined)", "solubility kinetic": "> 43.2"}
{"smiles": "CCOC(=O)C1CCCN(C(=O)c2cc3ccccc3oc2=O)C1", "note": "(centres undefined)", "solubility kinetic": 38.8}
{"smiles": "CS(=O)(=O)N1CCC(C(=O)NCc2ccccc2)CC1", "solubility kinetic": "> 44.5"}
{"smiles": "CC(Oc1ccc(Cl)cc1Cl)C(=O)Nc1ccc(OCC(=O)O)cc1", "note": "(centres undefined)", "solubility kinetic": "> 57.6"}
{"smiles": "Clc1ccc(-c2csc(-c3ccncc3)n2)cc1", "solubility kinetic": 0.3}
{"smiles": "Cc1ccc(OCC(=O)NC2CCCCCC2)cc1C", "solubility kinetic": 3.4}
{"smiles": "COc1ccc(/C=C2\\N=C(c3ccc(C)cc3)OC2=O)cc1", "solubility kinetic": 3.5}
{"smiles": "O=C(c1ccc(Cl)c(S(=O)(=O)N2CCc3ccccc32)c1)N1CCN(c2ccccc2O)CC1", "solubility kinetic": 11.3}
{"smiles": "CCCNC(=S)N1CCC(NC(=O)Nc2ccc(C)cc2)CC1", "solubility kinetic": 4.9}
{"smiles": "COc1ccc(C(CNC(=O)c2cc(C)on2)N(C)C)cc1", "note": "(centres undefined)", "solubility kinetic": 45.3}
{"smiles": "CCS(=O)(=O)Nc1ccc2[nH]c(=O)[nH]c2c1", "solubility kinetic": "> 36.2"}
{"smiles": "Cc1ccc(NC(=O)c2ccc3nsnc3c2)c(C)c1", "solubility kinetic": 1.5}
{"smiles": "CC(=O)C1=C(O)C(=O)N(CCO)C1c1ccccc1", "note": "(centres undefined)", "solubility kinetic": "> 39.2"}
{"smiles": "COc1ccc(N(C=O)C(C(=O)Nc2c(C)cccc2C)c2ccccc2)cc1", "note": "(centres undefined)", "solubility kinetic": 1.6}
{"smiles": "O=C(O)COCC(=O)NC1CCN(Cc2ccccc2)CC1", "solubility kinetic": "> 46"}
{"smiles": "Cc1csc(C(=O)O)c1NC(=O)c1c(Cl)cccc1Cl", "solubility kinetic": 40.7}
{"smiles": "Cc1ccc(CNc2ncc(-c3ccccc3)n2C)o1.O=C(O)C(=O)O", "solubility kinetic": "> 53.6"}
{"smiles": "ClC1(Cl)CC1Cn1cnc2ccccc21", "note": "(centres undefined)", "solubility kinetic": 33.4}
{"smiles": "COc1ccc(CCNC(=O)c2ccc(=O)[nH]c2)cc1OC", "solubility kinetic": "> 45.3"}
{"smiles": "COc1c(C)cccc1C(=O)NCc1ccc2c(c1)OCO2", "solubility kinetic": "> 44.9"}
{"smiles": "CC(C)NC(=O)c1cc(-c2ccc3c(c2)OCO3)on1", "solubility kinetic": 17.9}
{"smiles": "O=c1[nH]c2cc3ccccc3cc2nc1C(F)(F)F", "solubility kinetic": 2.9}
{"smiles": "COc1ccc(NC(=S)NCCc2ccccc2)c(C)c1", "solubility kinetic": 8.5}
{"smiles": "O=C(O)CN1C(=O)/C(=C/c2ccc(SCc3ccccc3)o2)SC1=S", "solubility kinetic": 21.2}
{"smiles": "COc1cccc(NC(=O)c2ccc3c(c2)OCCO3)c1", "solubility kinetic": "> 42.8"}
{"smiles": "Cc1nc2ccc([N+](=O)[O-])cc2c(=O)n1Cc1ccc([N+](=O)[O-])cc1", "solubility kinetic": 2.5}
{"smiles": "O=C(c1ccccc1F)N1C(=O)c2cccc3cccc1c23", "solubility kinetic": "< 0.6"}
{"smiles": "COc1cc(C(=O)OCC2CC(c3ccccc3)=NO2)cc(OC)c1OC", "note": "(centres undefined)", "solubility kinetic": 38.2}
{"smiles": "Nc1cc(C(F)(F)F)ccc1OCC1CCCO1", "note": "(centres undefined)", "solubility kinetic": 32.8}
{"smiles": "Cc1ccsc1C(=O)OCC(=O)NCc1ccccc1", "solubility kinetic": 10.9}
{"smiles": "O=C(CN1CCCCCC1)Nc1ccccc1OC(F)F", "solubility kinetic": 44.5}
{"smiles": "Cc1ccc(C)c(C(C)NC(=O)Cc2cccs2)c1", "note": "(centres undefined)", "solubility kinetic": "> 41"}
{"smiles": "Cc1cc(Cl)cc(C)c1OCC(=O)NC1CCCCCC1", "solubility kinetic": 1.9}
{"smiles": "CCCCC(=O)Nc1cc(C)c(NC(=O)c2ccco2)cn1", "solubility kinetic": "> 45.2"}
{"smiles": "O=C(Nc1ccccc1)[C@@H]1CCCN1S(=O)(=O)c1ccc(Cl)cc1", "solubility kinetic": 6.8}
{"smiles": "COc1ccc(S(=O)(=O)Nc2noc3ccccc23)cc1OC", "solubility kinetic": "> 50.2"}
{"smiles": "CC(=O)N(C)c1ccc(NC(=S)NC(=O)/C=C/c2ccco2)cc1", "solubility kinetic": 11.6}
{"smiles": "COc1ccc(C2(O)C(=O)Nc3ccccc32)cc1", "note": "(centres undefined)", "solubility kinetic": "> 38.3"}
{"smiles": "Cc1cc(C)c2c(N)c(C(=O)Nc3ccc(C)c(C)c3)sc2n1", "solubility kinetic": 1.1}
{"smiles": "Cc1ccc(C(=O)Nc2ccc(S(=O)(=O)N3CCCC3)cc2)cc1", "solubility kinetic": 1.6}
{"smiles": "O=S(=O)(Nc1ccccc1O)c1cccc2cccnc12", "solubility kinetic": 43}
{"smiles": "Cc1cc(C)nc(SCC(=O)c2ccc(C)c(C)c2)n1", "solubility kinetic": 19.3}
{"smiles": "CC(=O)c1cccc(NC(=O)c2ccc(OC3CSC3)cc2)c1", "solubility kinetic": "< 0.7"}
{"smiles": "CCC(=O)Nc1cccc(C(=O)c2ccc(C)c(C)c2)c1", "solubility kinetic": 28}
{"smiles": "CCOC(=O)N1CCN(Cc2ccc3c(c2)OCO3)CC1", "solubility kinetic": 41.9}
{"smiles": "O=C1NC(=O)C(=Cc2ccsc2)C(=O)N1", "solubility kinetic": "> 33.3"}
{"smiles": "O=S(=O)(CCSc1ccc(C(F)(F)F)cn1)c1ccccc1", "solubility kinetic": 4.7}
{"smiles": "CC1CCCC(C)N1CC(O)COCc1ccccc1F.Cl", "note": "(centres undefined)", "solubility kinetic": 45.6}
{"smiles": "CCN(CC)CC#CC(O)(c1ccccc1)c1ccccc1", "solubility kinetic": "> 44"}
{"smiles": "O=C(COC(=O)COc1ccccc1F)NC1CC1", "solubility kinetic": 37}
{"smiles": "CCCOC(=O)CC1C(=O)NCCN1C(=O)OC(C)(C)C", "note": "(centres undefined)", "solubility kinetic": "> 45.1"}
{"smiles": "COc1ccc(N/C(=N/c2nc(C)cc(C)n2)NC(=O)c2ccccc2)cc1", "solubility kinetic": 0.3}
{"smiles": "O=C1CN(O)C(c2ccccc2)=c2cc(Cl)ccc2=N1", "solubility kinetic": 37.9}
{"smiles": "CC(=O)c1ccc(-n2c(C)c(C(C)=O)c3cc(O)ccc32)cc1", "solubility kinetic": "< 0.7"}
{"smiles": "Cc1cccc(CC2CC(=O)N(c3nc4ccccc4s3)C2=O)c1", "note": "(centres undefined)", "solubility kinetic": 16.5}
{"smiles": "O=C(COC(=O)Cc1ccc(Cl)cc1Cl)NC1CC1", "solubility kinetic": "> 45.3"}
{"smiles": "Cc1cc(=O)[nH]c(Nc2cccc(Br)c2)n1", "solubility kinetic": "> 42"}
{"smiles": "CC(N)Cc1cn(Cc2ccccc2)c2ccccc12.Cl", "note": "(centres undefined)", "solubility kinetic": "> 45.1"}
{"smiles": "CC(C)CCN1CCN(Cc2ccon2)CC1CCO", "note": "(centres undefined)", "solubility kinetic": "> 42.2"}
{"smiles": "CC(=O)c1ccc(NC(=O)C2CC(=O)N(C(C)C)C2)cc1", "note": "(centres undefined)", "solubility kinetic": "> 43.3"}
{"smiles": "CN(C)CCn1cnc2ccccc21.Cl", "solubility kinetic": "> 39.3"}
{"smiles": "O=C(COC(=O)COc1ccc(Cl)cc1Cl)NC1CC1", "solubility kinetic": "> 47.7"}
{"smiles": "Cn1c(=O)c2cnc(-c3ccc(C(F)(F)F)cc3)nc2n(C)c1=O", "solubility kinetic": "< 0.2"}
{"smiles": "CC1(C)C2([N+](=O)[O-])CN3CC1([N+](=O)[O-])CN(C2)C3c1ccccn1", "note": "(centres undefined)", "solubility kinetic": 7.9}
{"smiles": "O=c1oc(Nc2cccc(Cl)c2)nc2ccccc12", "solubility kinetic": 0.5}
{"smiles": "CCCCN1C(=O)C(C)=C(C)C1OCCc1ccc(OC)c(OC)c1", "note": "(centres undefined)", "solubility kinetic": 50.5}
{"smiles": "Cc1cc(NC(=O)CSc2ncccc2C(=O)O)no1", "solubility kinetic": "> 44"}
{"smiles": "Cc1onc(-c2c(F)cccc2Cl)c1C(=O)c1ccc(F)cc1", "solubility kinetic": 9.1}
{"smiles": "Cc1ccc(S(=O)(=O)c2ccc([N+](=O)[O-])cn2)cc1", "solubility kinetic": 21}
{"smiles": "O=C(Nc1cccnc1Cl)c1cccc(S(=O)(=O)N2CCOCC2)c1", "solubility kinetic": "> 57.3"}
{"smiles": "CCOC(=O)Cc1csc(NC(=O)CN2CCN(c3ccccc3)CC2)n1", "solubility kinetic": 44.6}
{"smiles": "COc1ccc(-c2nc(-c3ccncc3)no2)cc1", "solubility kinetic": 1.1}
{"smiles": "N#C/C(=C\\N1CCCCC1)S(=O)(=O)c1ccc(Cl)cc1", "solubility kinetic": 8.2}
{"smiles": "Cc1ccc(NC(=O)N(CCC#N)Cc2ccccc2)cc1", "solubility kinetic": "> 44"}
{"smiles": "CCc1ccc(S(=O)(=O)Nc2ccccn2)cc1", "solubility kinetic": "> 39.3"}
{"smiles": "O=C(/C=C/c1ccc(Br)o1)Nc1nccs1", "solubility kinetic": 4.3}
{"smiles": "Nc1nc(COC(=O)c2ccc3c(c2)OCCO3)nc(Nc2ccccc2)n1", "solubility kinetic": 3.9}
{"smiles": "Cc1cc(=O)[nH]c(SCc2ccc(Cl)cc2Cl)n1", "solubility kinetic": 1.2}
{"smiles": "COc1cccc(NC(=O)CCN2C(=O)c3cccc([N+](=O)[O-])c3C2=O)c1", "solubility kinetic": "> 55.4"}
{"smiles": "CCOc1ccc(CN(C)C(=O)CNC(=O)C2CCCCC2)cc1", "solubility kinetic": "> 49.9"}
{"smiles": "Cc1cc(C)c(OCC(=O)OCC(=O)NC2CCCCCCC2)c(C)c1", "solubility kinetic": 23.5}
{"smiles": "O=C1CNC(=S)N1CCc1ccc(O)c(O)c1", "solubility kinetic": 32.3}
{"smiles": "O=C(NCc1ccccc1Cl)C1CCN(C(=O)c2ccco2)CC1", "solubility kinetic": "> 52"}
{"smiles": "CC1(C)Cc2cccc(C(=O)Nc3ccc(Cl)cc3)c2O1", "solubility kinetic": 2.4}
{"smiles": "CC(=O)c1ccc(-c2ccc(C(=O)Nc3nc(-c4ccccn4)cs3)o2)cc1", "solubility kinetic": 4.9}
{"smiles": "C=CCNC(=O)c1cc(-c2ccc3c(c2)OCO3)on1", "solubility kinetic": 1.5}
{"smiles": "Cc1ccc(NC(=O)c2cccnc2)c([N+](=O)[O-])c1", "solubility kinetic": "> 38.6"}
{"smiles": "COc1ccc(C(=O)O)cc1S(=O)(=O)NC(C)C", "solubility kinetic": "> 41"}
{"smiles": "COc1ccc(N2C(=O)NC(=O)C2=O)cc1", "solubility kinetic": "> 33"}
{"smiles": "O=C(CSCCOc1ccccc1)NCc1ccncc1", "solubility kinetic": "> 45.4"}
{"smiles": "Cc1ccc(Nc2nc(N)c3ccccc3n2)cc1Cl.Cl", "solubility kinetic": 22.1}
{"smiles": "O=C(Nc1sc2c(c1C(=O)O)CCC2)c1ccccc1Cl", "solubility kinetic": 41.1}
{"smiles": "Cc1cccc(C)c1OCC(O)CNC(C)c1ccccc1.Cl", "note": "(centres undefined)", "solubility kinetic": "> 50.4"}
{"smiles": "CC(C)(C)OC(=O)NCCNC(=O)c1cccs1", "solubility kinetic": "> 40.6"}
{"smiles": "Nc1cc(S(=O)(=O)Nc2ccccc2Cl)ccc1N1CCCCC1", "solubility kinetic": 13.2}
{"smiles": "COc1ccc(C)cc1NC(=S)N1CCN(c2ncccn2)CC1", "solubility kinetic": 47.4}
{"smiles": "COc1ccc(CNC(=O)CSc2nccn(-c3ccc(F)c(F)c3)c2=O)cc1", "solubility kinetic": 12.4}
{"smiles": "CCc1ccc(NC(=O)c2cnc(SC)nc2C)cc1", "solubility kinetic": 17.4}
{"smiles": "COc1ccc(N2CCN(C(=O)NC(=O)c3ccc(Cl)cc3)CC2)cc1", "solubility kinetic": 3.1}
{"smiles": "O=C(Nc1ccccc1)C1CCN(C(=O)c2ccco2)CC1", "solubility kinetic": "> 44.8"}
{"smiles": "O=C(/C=C/c1ccc(OCc2cccc(Cl)c2)cc1)N1CCOCC1", "solubility kinetic": 5.2}
{"smiles": "O=Cc1c(Nc2cccc(C(F)(F)F)c2)nc2ccccn2c1=O", "solubility kinetic": 1.7}
{"smiles": "CC1CN(S(=O)(=O)c2cccc(C(=O)NCc3ccccn3)c2)CC(C)O1", "note": "(centres undefined)", "solubility kinetic": "> 58.4"}
{"smiles": "O=C(c1ccc(Cl)cc1)N1CCc2ccccc21", "solubility kinetic": 7.2}
{"smiles": "O=C1CSC(=S)N1c1ccc(O)cc1", "solubility kinetic": 28.1}
{"smiles": "CC1CCCCC12NC(=O)N(CC(=O)N1CCc3ccccc31)C2=O", "note": "(centres undefined)", "solubility kinetic": 3.7}
